Data published in PMC11249646, “Small-Molecule Disruptors of the Interaction between Calcium- and Integrin-Binding Protein 1 and Integrin αIIbβ3 as Novel Antiplatelet Agents” (ACS Pharmacology & Translational Science, 2024).
Read-outs that look alike come from different tables or passages of the source. Values belong to the compound of their own block, whether it stands above or below them. Where a SMILES comes first, the peptide text is derived from it. The star is where a group is joined. FITC = O=C1OC2(c3ccc(O)cc3Oc3cc(O)ccc32)c2ccc(NC(=S)*)cc21

Columns and labels:
Format in all cases: binding
[1] = target: T1, CIB1 and αIIb interaction (GST-CIB1 : F-αIIb peptide) (Homo sapiens, UniProt Q99828); assay: FP assay, 384-well format (screen); design: 384-well SCREEN Efficacy (%): concentration or dose not given beside the values; conditions: F-αIIb peptide; for 384-well SCREEN Confirm?: YES/NO; for IC50: read-out: 384-well SCREEN IC50
T1 construct: made in house; host or cells: BL-21 plus RIL cells (E. coli)
T1 sequence (Q99828 1-191): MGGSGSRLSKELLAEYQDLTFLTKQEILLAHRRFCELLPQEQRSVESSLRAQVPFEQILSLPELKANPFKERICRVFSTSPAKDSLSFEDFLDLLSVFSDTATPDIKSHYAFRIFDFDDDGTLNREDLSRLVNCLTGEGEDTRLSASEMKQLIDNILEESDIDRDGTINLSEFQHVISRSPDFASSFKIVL

[2] = target: T2, GST-CIB1 : F-scrambled peptide (Homo sapiens, UniProt Q99828); assay: FP scrambled-peptide counter screen, 384-well format; conditions: for IC50: read-out: 384-well COUNTERSCREEN IC50
T2 construct: made in house; host or cells: BL-21 plus RIL cells (E. coli)
T2 sequence (Q99828 1-191): T1 sequence (Q99828 1-191)

[3] = target: T3, CIB1 and αIIb interaction (CIB1-GST : F-αIIb peptide) (Homo sapiens, UniProt Q99828); assay: FP assay, 1536-well qHTS format (primary and confirmatory screen); conditions: for Curve Class (confirmatory screen) / CONFIRMATORY SCREEN Curve Class: qHTS curve class
T3 construct: made in house; host or cells: BL-21 plus RIL cells (E. coli)
T3 sequence (Q99828 1-191): T1 sequence (Q99828 1-191)

[4] = target: T2, GST-CIB1 : F-scrambled peptide; assay: FP scrambled-peptide counter screen, 1536-well format; conditions: for Curve Class (counterscreen) / COUNTERSCREEN Curve Class: qHTS curve class; for IC50: read-out: IC50 [μM] (counterscreen)
[5] = qHTS primary screen hits, Table S2, negative = inhibition
[6] = qHTS primary screen hits, Table S2, negative sign = inhibitory curve
[7] = qHTS primary screen hits, Table S2, read-out: IC50
[8] = Table S3, confirmatory screen, a negative sign marks inhibitory curves
[9] = Table S3, confirmatory screen, negative = inhibition
[10] = qHTS FP screen hits, Table S2, negative = inhibition
[11] = qHTS FP screen hits, Table S2, read-out: IC50
[12] = Table S3, counterscreen, a negative sign marks inhibitory curves
[13] = Table S3, counterscreen, negative = inhibition
[14] = confirmatory screen, negative sign = inhibitory curve
[15] = confirmatory screen, read-out: IC50 [μM] (confirmatory screen)
[16] = qHTS primary screen hits, Table S2, negative sign = inhibitory curve, several classes where COUNT > 1
[17] = counterscreen, negative sign = inhibitory curve

SMILES: O=C(O)C1=CC(=C(c2ccc(O)c(C(=O)O)c2)c2ccc(O)c(C(=O)O)c2)C=CC1=O [NCGC00015040-05]
- 384-well SCREEN Efficacy (%) [1]: 45%
- 384-well SCREEN Confirm? [1]: YES
- IC50 [1]: 4.6 µM
- 384-well COUNTERSCREEN Efficacy (%) ([2]; F-scrambled peptide): 15%
- 384-well COUNTERSCREEN Confirm? ([2]; F-scrambled peptide, *: Curve in opposite direction): YES
- IC50 ([2]; F-scrambled peptide): > 120 µM
- Efficacy (%) [3, 5]: -33%
- Curve Class [3, 6]: -1.2
- IC50 [3, 7]: 3.2 µM

SMILES: O=C(NCCCN1CCNCC1)c1cccc(-c2cc(O)c3ncccc3c2)c1.O=C(O)C(F)(F)F [NCGC00244531-01]
- Curve Class (confirmatory screen) [3, 8]: 4
- Efficacy (%) (confirmatory screen) [3, 9]: -33%
- Efficacy (%) [3, 10]: -46%
- Curve Class ([3]; qHTS FP screen hits, Table S2, one class per curve where COUNT > 1, negative sign = inhibitory curve): -2.2
- IC50 [3, 11]: 39.8 µM
- Confirm? (counterscreen) ([4]; Table S3, counterscreen, YES/NO call): YES
- Curve Class (counterscreen) [4, 12]: -1.2
- Efficacy (%) (counterscreen) [4, 13]: -52%
- IC50 ([4]; Table S3, counterscreen): 35.5 µM

SMILES: Cc1cc(SCc2sc(-c3ccc(Cl)c(Cl)c3)nc2C)ccc1OCC(=O)O.O=C(O)C(F)(F)F [NCGC00319075-01]
- Efficacy (%) (confirmatory screen) ([3]; confirmatory screen): -74%
- Confirm? (confirmatory screen) ([3]; confirmatory screen, YES/NO): YES
- Curve Class (confirmatory screen) [3, 14]: -3
- IC50 [3, 15]: 35.5 µM
- Efficacy (%) [3, 5]: -41%
- IC50 [3, 7]: 34 µM
- Efficacy (%) (counterscreen) ([4]; counterscreen): 78%
- Confirm? (counterscreen) ([4]; counterscreen, YES/NO): YES
- IC50 ([4]; counterscreen): 79.4 µM

SMILES: COc1cccc(CN(C)c2ccc(S(=O)(=O)Nc3nccs3)cc2)c1O.O=C(O)C(F)(F)F [NCGC00318978-01]
- Confirm? (confirmatory screen) ([3]; Table S3, confirmatory screen, YES/NO call): YES
- Curve Class (confirmatory screen) [3, 8]: -2.4
- Efficacy (%) (confirmatory screen) [3, 9]: -35%
- IC50 ([3]; Table S3, confirmatory screen, read-out: IC50 [μM] (confirmatory screen)): 44.7 µM
- Efficacy (%) [3, 10]: -24%
- IC50 [3, 11]: 17.8 µM
- Curve Class (counterscreen) [4, 12]: -2.4
- Efficacy (%) (counterscreen) [4, 13]: -33%
- IC50 ([4]; Table S3, counterscreen): 39.8 µM

SMILES: CCc1ccc(NC(=O)C(=O)NNC(=O)c2cccs2)cc1.O=C(O)C(F)(F)F [NCGC00244112-01]
- Curve Class (confirmatory screen) [3, 8]: 4
- Efficacy (%) (confirmatory screen) [3, 9]: 0%
- Efficacy (%) [3, 5]: -22%
- Curve Class [3, 6]: -1.4
- IC50 [3, 7]: 3.2 µM
- Efficacy (%) (counterscreen) [4, 13]: 71%
- IC50 ([4]; Table S3, counterscreen): 89.1 µM

SMILES: Cc1ccc(OCCn2c(CCNC(=O)c3ccsc3)nc3ccccc32)cc1.O=C(O)C(F)(F)F [NCGC00238707-01]
- Curve Class (confirmatory screen) [3, 8]: 3
- Efficacy (%) (confirmatory screen) [3, 9]: 35%
- Efficacy (%) [3, 5]: -22%
- Curve Class [3, 16]: -1.4
- IC50 [3, 7]: 11.2 µM
- Efficacy (%) (counterscreen) [4, 13]: 109%
- IC50 ([4]; Table S3, counterscreen): 50.1 µM

SMILES: O=C(O)C(F)(F)F.O=C1CCC2=C1C1(CCCC1)N=C(Nc1nc3ccccc3o1)N2 [NCGC00188036-01]
- CONFIRMATORY SCREEN Efficacy (%) ([3]; confirmatory screen): -27%
- CONFIRMATORY SCREEN Curve Class ([3]; confirmatory screen): 4
- Efficacy (%) [3, 5]: -24%
- Curve Class [3, 16]: -1.4
- IC50 [3, 7]: 2.8 µM
- COUNTERSCREEN Efficacy (%) ([4]; counterscreen): -10%
- COUNTERSCREEN Curve Class ([4]; counterscreen): 4

SMILES: O=c1c(O)c(-c2ccc(O)c(O)c2)oc2cc(O)cc(O)c12 [NCGC00015870-16]
- Efficacy (%) (confirmatory screen) ([3]; confirmatory screen): -32%
- Confirm? (confirmatory screen) ([3]; confirmatory screen, YES/NO): YES
- Curve Class (confirmatory screen) [3, 14]: -2.4
- Efficacy (%) (counterscreen) ([4]; counterscreen): -31%
- Confirm? (counterscreen) ([4]; counterscreen, YES/NO): YES
- Curve Class (counterscreen) [4, 17]: 4

SMILES: O=C(O)C(F)(F)F.O=C(O)c1ccc(O)c2ncc(-c3n[nH]nc3-c3ccccc3)cc12 [NCGC00241764-01]
- Efficacy (%) (confirmatory screen) ([3]; confirmatory screen): -23%
- Confirm? (confirmatory screen) ([3]; confirmatory screen, YES/NO): YES
- Curve Class (confirmatory screen) [3, 14]: -1.4
- IC50 [3, 15]: 39.8 µM
- Efficacy (%) [3, 10]: -21%
- IC50 [3, 11]: 28.2 µM
- Efficacy (%) (counterscreen) ([4]; counterscreen): -33%
- Confirm? (counterscreen) ([4]; counterscreen, YES/NO): YES
- Curve Class (counterscreen) [4, 17]: 4

Other lines, results leading:

- 384-well SCREEN Efficacy (%) [1]: 60%
- 384-well SCREEN Confirm? [1]: YES
- IC50 [1]: 1 µM
- 384-well COUNTERSCREEN Efficacy (%) ([2]; F-scrambled peptide): 60%
- IC50 ([2]; F-scrambled peptide): 1.3 µM
- Efficacy (%) [3, 5]: -64%
- Curve Class [3, 6]: -1.2
- IC50 [3, 7]: 1.4 µM
SMILES: Nc1c(S(=O)(=O)[O-])cc(Nc2ccc(Nc3nc(Cl)nc(Nc4ccc(S(=O)(=O)O)cc4)n3)c(S(=O)(=O)O)c2)c2c1C(=O)c1ccccc1C2=O.[Na+] [NCGC00162329-02]

- affinity weaker compared to the native peptide ([2]; F-scrambled vs F-αIIb, 1.6 vs 0.2 μM): ~8 fold
SMILES: CSCC[C@H](NC(=O)[C@@H](NC(=O)[C@H](CCCCN)NC(=O)[C@@H](NC(=O)[C@H](Cc1ccccc1)NC(=O)[C@H](CC(C)C)NC(=O)[C@H](CCCCN)NC(=O)[C@H](CCCNC(=N)N)NC(C)=O)C(C)C)C(C)C)C(=O)N[C@@H](Cc1ccccc1)C(=O)N[C@@H](Cc1c[nH]c2ccccc12)C(=O)N[C@@H](CCCNC(=N)N)C(=O)N[C@@H](CC(C)C)C(=O)N[C@@H](CC(N)=O)C(=O)NCC(=O)N[C@@H](C)C(=O)N[C@@H](CCCCNC(=S)Nc1ccc2c(c1)C(=O)OC21c2ccc(O)cc2Oc2cc(O)ccc21)C(=O)O [F-scrambled, reference compound] (Ac-RKLFVKVMFWRLNGAK(FITC)-OH; C-terminus assumed)

- IC50 [1]: 1.7 µM
- IC50 ([2]; F-scrambled peptide): 3.3 µM
- IC50 [3, 7]: 7.9 µM
SMILES: Cc1nc(/N=N\c2cc(S(=O)(=O)O)c3cc([N+](=O)[O-])cc(S(=O)(=O)O)c3c2)c(COP(=O)(O)O)c(C=O)c1O [NCGC00162294-03]

- IC50 [1]: > 120 µM
- IC50 ([2]; F-scrambled peptide): 4.6 µM
- IC50 ([3]; confirmatory screen, read-out: CONFIRMATORY SCREEN IC50): 50.1 µM
- IC50 [3, 7]: 24.1 µM
SMILES: CN1CCCN=C1/C=C/c1cccs1 [NCGC00094552-04]

- 384-well SCREEN Efficacy (%) [1]: 70%
- 384-well SCREEN Confirm? [1]: YES
- 384-well COUNTERSCREEN Efficacy (%) ([2]; F-scrambled peptide): 70%
- Efficacy (%) [3, 5]: -64%
- Curve Class [3, 6]: -1.2
SMILES: Cc1nc(N=Nc2cc(S(=O)(=O)O)c3cc([N+](=O)[O-])cc(S(=O)(=O)O)c3c2)c(COP(=O)(O)O)c(C=O)c1O (stereo in doubt) [NCGC00162294-03]

- 384-well SCREEN Efficacy (%) [1]: 175%
- 384-well SCREEN Confirm? [1]: YES
- IC50 [1]: 22.2 µM
- 384-well COUNTERSCREEN Efficacy (%) ([2]; F-scrambled peptide): 200%
- IC50 ([2]; F-scrambled peptide): 22.2 µM
- Efficacy (%) [3, 5]: -172%
- Curve Class [3, 6]: -1.1
- IC50 [3, 7]: 12.7 µM
SMILES: OCCN(CCO)c1nc(N2CCCCC2)c2nc(N(CCO)CCO)nc(N3CCCCC3)c2n1 [NCGC00015385-15]

- 384-well SCREEN Efficacy (%) [1]: 48%
- 384-well SCREEN Confirm? [1]: YES
- IC50 [1]: 15.8 µM
- 384-well COUNTERSCREEN Efficacy (%) ([2]; F-scrambled peptide): 34%
- IC50 ([2]; F-scrambled peptide): 14.1 µM
SMILES: CN(C)[C@@H]1CCN(c2cccc(Nc3nn4c(=O)c5ccccc5nc4s3)c2)C1.Cl [NCGC00189223-01]

- 384-well SCREEN Efficacy (%) [1]: 70%
- 384-well SCREEN Confirm? [1]: YES
- IC50 [1]: 9.1 µM
- 384-well COUNTERSCREEN Efficacy (%) ([2]; F-scrambled peptide): 70%
- IC50 ([2]; F-scrambled peptide): 7.4 µM
- Efficacy (%) [3, 5]: -46%
- Curve Class [3, 6]: -1.2
- IC50 [3, 7]: 5 µM
SMILES: NS(=O)(=O)c1cccc2c1c([N+](=O)[O-])cc1nc(O)c([O-])nc12.[Na+] [NCGC00024961-03]

- CONFIRMATORY SCREEN Efficacy (%) ([3]; confirmatory screen): -28%
- CONFIRMATORY SCREEN Curve Class ([3]; confirmatory screen): 4
- COUNTERSCREEN Efficacy (%) ([4]; counterscreen): -35%
- COUNTERSCREEN Curve Class ([4]; counterscreen): 4
SMILES: O=C(O)CCNc1cc(N2CCc3ccccc3CC2)nc(-c2ccccn2)n1 [NCGC00347943-01]
